Assay results: PubChem BioAssay (NCI)
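Cells were grown in 96-well plates and exposed to each compound for 48 hours at five concentrations; endpoints were interpolated linearly between bracketing concentrations, or set to the highest concentration if not reached. GI50: concentration for 50% inhibition of growth. TGI marks complete inhibition of growth.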

Legend:
Test in all cases: inhibition of tumour cell growth, NCI panel, 48 h
[1] = test system: A498 renal
[2] = test system: EKVX NSCLC
[3] = test system: HT29 colon
[4] = test system: KM12 colon
[5] = test system: MALME-3M melanoma
[6] = test system: NCI-H522 lung
[7] = test system: OVCAR-5 ovarian
[8] = test system: SF-295 CNS
[9] = test system: SK-MEL-5 melanoma
[10] = test system: SN12C renal

Structure (SMILES)	TGI [1] [µM]	TGI [2] [µM]	TGI [3] [µM]	TGI [4] [µM]	TGI [5] [µM]	TGI [6] [µM]	TGI [7] [µM]	TGI [8] [µM]	TGI [9] [µM]	TGI [10] [µM]	GI50 [1] [µM]	GI50 [2] [µM]	GI50 [3] [µM]	GI50 [4] [µM]	GI50 [5] [µM]	GI50 [6] [µM]	GI50 [7] [µM]	GI50 [8] [µM]	GI50 [9] [µM]	GI50 [10] [µM]
CCC(C)C(=O)c1c(O)c(C/C=C(\C)CCC=C(C)C)c(O)c2c(C(O)CC)cc(=O)oc12 (stereo not given)	6.15	10.1	3.62	11.4	5.28	5.73	17.9	7.82	2.74	8.26	–	–	–	–	–	–	–	–	–	–
CCOC(=O)/C=C(\C)c1ccc(OC)cc1	> 100	> 100	> 100	> 100	> 100	–	> 100	> 100	> 100	> 100	–	–	–	–	–	–	–	–	–	–
COc1ccc(NC(=O)/C(=C/c2ccc(N(CCC#N)CCC#N)cc2)NC(=O)c2cc([N+](=O)[O-])ccc2Cl)cc1	–	> 100	–	> 100	> 100	> 100	> 100	73.2	> 100	> 100	–	–	–	–	–	–	–	–	–	–
CC(C)C[P+](c1ccccc1)(c1ccccc1)c1ccccc1	> 100	30	> 100	20.7	83.6	> 100	> 100	90.5	18.2	> 100	–	–	–	–	–	–	–	–	–	–
COc1ccc(NC(=O)/C(CC2=Nc3ccc([N+](=O)[O-])cc3NC2O)=N\NC(=O)C[N+](C)(C)C)c(OC)c1 (stereo not given)	–	> 100	> 100	> 100	–	> 100	> 100	> 100	96.3	> 100	–	–	–	–	–	–	–	–	–	–
CC1(C)N=C(N)N=C(N)N1c1cccc(OCCOc2ccc([N+](=O)[O-])cc2)c1	> 100	> 100	> 100	> 100	> 100	> 100	> 100	> 100	> 100	> 100	–	–	–	–	–	–	–	–	–	–
N#Cc1c(NC(=S)NC(=O)c2ccccc2)nc2c(c1-c1ccccc1)CCCC2	–	–	> 100	> 100	–	–	> 100	> 100	> 100	–	–	–	–	–	–	–	–	–	–	–
COc1cc(C2c3cc4c(cc3[C@@H](Nc3cccc(C(C)=O)c3)C3COC(=O)[C@H]23)OCO4)cc(OC)c1O (stereo not given in full)	1.6	> 22.3	6.53	5.67	15	5.77	> 59.7	1.39	2.37	–	–	–	–	–	–	–	–	–	–	–
ClCc1c(Cl)c(Cl)c(Cl)c(CCl)c1Cl	12.5	4.15	3.3	3.48	3.79	3.12	4.18	27.7	6.25	4.03	2.45	1.81	1.79	1.85	1.55	1.51	1.93	9.07	2.23	1.91
NCc1ccc(C(=O)O)cc1	> 100	> 100	> 100	> 100	> 100	> 100	> 100	> 100	> 100	> 100	–	–	–	–	–	–	–	–	–	–
CCO/N=[N+](\[O-])N(CC)CC	> 100	> 100	> 100	> 100	–	> 100	> 100	> 100	> 100	> 100	–	–	–	–	–	–	–	–	–	–
COc1ccc(-c2cc(N3CCN(c4ccccc4)CC3)c(C#N)c(=O)o2)cc1	64.9	> 100	> 100	> 100	53.7	–	> 100	59.5	> 100	> 100	–	–	–	–	–	–	–	–	–	–
Cc1nc2ccccc2c(=O)[nH]1	> 100	> 100	> 100	> 100	> 100	> 100	> 100	> 100	> 100	> 100	–	–	–	–	–	–	–	–	–	–
C#CC[C@@H]1C[C@]2(C)[C@H]3CC=C4[C@H]5CC(C)(C)CC[C@]5(C(=O)NCCCCN)CC[C@@]4(C)[C@]3(C)CC[C@H]2C(C)(C)[C@H]1OC(C)=O	3.21	3.3	–	3.18	3.04	–	2.99	3.29	–	3.28	1.8	1.69	–	1.68	1.55	–	1.62	1.82	–	1.76
Cn1c(-c2ccc(/C=N\N3CCN(/N=C/c4ccc(-c5c[n+]6ccccc6n5C)cc4)CC3)cc2)c[n+]2ccccc12	42.8	> 100	> 100	> 100	–	> 100	> 100	78.6	> 100	> 100	–	–	–	–	–	–	–	–	–	–
CC[n+]1c(/C=C/c2ccc(N(CCCl)CCCl)cc2)ccc2cc(NC(=O)/C=C/c3ccccc3)ccc21	27.4	4.76	1.36	1.58	0.81	1.17	6.03	7.81	0.632	1.52	–	–	–	–	–	–	–	–	–	–
COc1ccc(CC(C)N)cc1 (stereo not given)	> 100	> 100	> 100	> 100	> 100	> 100	> 100	> 100	> 100	> 100	–	–	–	–	–	–	–	–	–	–
Brc1ccccc1-c1ncc(-c2ccccc2)o1	60.5	> 100	> 100	41.7	76.3	49.9	> 100	> 100	34.5	> 100	–	–	–	–	–	–	–	–	–	–
